Legend:
Clostridium ljungdahlii [1] = experiment: Effect of CO feed rates on CO conversion (Example 5); assay type: cell-based
Experimental: Clostridium ljungdahlii was grown and maintained using only CO and N2 (feed gas) in a bioreactor (New Brunswick BioFlo I or IIc). During the experiment, rate of feed gas was altered to obtain desired culture conversions. Lower culture conversions were employed to provide excess dissolved CO to Clostridium ljungdahlii.
Low culture conversions of CO was used as s method to provide excess dissolved CO to the culture. For example, when a culture in a reactor can convert X amount of CO at a given agitation and at a given flow rate, the dissolved CO can be increased by increasing the flow rate so that culture conversions go below X.

Clostridium ljungdahlii [2] = experiment: Fermentation with low CO feed-gas (Example 3); assay type: cell-based; conditions: 9.5% CO/90.5% N2 feed gas, 534 ml/min; inoculum 0.38 g/l; within 90.6 hours after inoculation
Experimental: (§1) New Brunswick and CelliGen 310 reactor containing modified 1× ethanol medium were inoculated with 0.38 g/l of actively growing (in syngas) Clostridium ljungdahlii. Before inoculation, the rate of agitation of the reactor was set to 800 rpm. Gas and liquid samples taken from the reactor at every 1 to 4 hour intervals were analyzed for consumption or production of various gas components, broth acetic acid concentration, broth ethanol concentration and the optical density of the culture. Also the composition of the feed-gas was measured daily and the flow to the reactor was measured in real time by the mass flow controller regulating feed-gas to the reactor.
(§2) A CO composition feed gas of 9.5% CO/90.5% N2 was utilized and the flow was set to 534 ml/min. All through out the experiment the rate of feed gas to the reactor was not adjusted.
The method was utilized to keep the dissolved CO in the culture broth below 0.12 mmol/L at around 37 to 38° C. According to the Henry's Law, the maximum dissolved CO concentration that can be obtained by feeding a gas containing 9.5% is 0.079 mmol.
(§3) A Shimadzu GC-2014 gas chromatograph was used to measure the broth ethanol and acetic acid concentrations. SRI 8610c gas chromatograph was used to measure the components of the feed-gas.

[3] = Dissolved CO by Henry's law calculation; assay type: physicochemical; conditions: feeding a gas containing 9.5% CO, 37 to 38° C.
Experimental: In order to calculate dissolved CO, the mass transfer coefficient (KLa) of the system needs to be determined. KLa value will depend on various factors, such as architecture of the reactor, superficial gas flow rate, un-aroused volume, temperature and agitation power. Therefore KLa values vary from reactor conditions to condition.
Henry's law:P=KHC • Henry's constant=KH=p/c (L(psi)/mol) • at 38° C., KH=17640 (L(psi)/mol)
In a CSTR containing CO consuming bacteria, the following equation may be used to estimate dissolved CO. • KLa((PCO(head space)/KH)−(PCO(liquid)/KH))=COU • COU=carbon monoxide uptake (mol/L/min) • KLa=mass transfer coefficient (min^−1) • (PCO(liquid)/KH)=dissolved CO (mol/L)
When dissolved CO=0 • KLa=COU/(PCO(head space)/KH) • KLa((PCO(head space)/KH)−(PCO(liquid)/KH))=COU • KH=L(psi)/mol

[4] = tested on: Butyribacterium methylotrophicum; experiment: Fermentation with low CO feed-gas (Example 4); assay type: cell-based; conditions: 9.5% CO/90.5% N2 feed gas, 534 ml/min; inoculum 0.86 g/l; within 44.4 hours after inoculation
Experimental: as §1, with “medium was” for “medium were”, “with 0.86” for “with 0.38”, “(in 5% CO/95% N2) Butyribacterium methylotrophicum. At the start of the experiment” for “(in syngas) Clostridium ljungdahlii. Before inoculation,”, “measured” for “measured in”
as §2
This method was utilized to keep the dissolved CO in the culture broth below 0.12 mmol/l at around 37 to 38° C. According to the Henry's law the maximum dissolved CO concentration that can be obtained by feeding a gas containing 9.5% is 0.079 mmol.
as §3

[5] = at 38° C.; cited from earlier work
Clostridium ljungdahlii [6] = experiment: Inhibitory CO feed rates, four stage protocol (Example 6); assay type: cell-based; conditions: for CRT Average (cell retention time): from 18 hours after beginning to end of stage
Experimental: Clostridium ljungdahlii was grown in a bioreactor (New Brunswick BioFlo I or IIc).
To achieve a conductivity of 9 mS/cm, a medium was made using 1.5× of all components except for vitamins. A four stage protocol was used as follows:
Stage 1: A culture was grown up in a 2 L bioreactor using syngas. With a cell density of 2.9 g/L, the gas source was switched from syngas mixture to a CO/N2 mixture containing 95% CO and 5% N2.
Stage 2: At T=26 hrs, a CO conversion target was set at >90%.
Stage 3: At T=70 hrs, the CO conversion target was decreased from 90% to 85%.
Stage 4: At T=97 hrs, the CO conversion target was decreased from 85% to 80%.
Dissolved CO was calculated for each gas sample using representative KLa values for a particular gas flow rate. These values were then averaged to find a representative value for each stage. Pictures were taken throughout the experiment in order to qualitatively study the morphology change over time.
Average cell retention time (CRT) was calculated for the period of 18 hours after the beginning of each stage to the end of each stage.

Clostridium ljungdahlii [7] = experiment: Effect of CO concentration on growth, bioreactor runs (Example 7); assay type: cell-based; conditions: for bacterial cell density over time: inoculum 3.8 g/L
Experimental: Clostridium ljungdahlii was grown in a bioreactor (New Brunswick BioFlo I or IIc). The following adjustments were made:
Conductivity of the culture was adjusted by adjusting the strength of the growth medium, for example concentration of all the components, except vitamin in the growth medium was increased by 1.5 times to increase the conductivity of the culture from approximately 7 mS to approximately 9.5 mS. […]
Initial gas flow rate of each experiment was kept unchanged throughout the experiment. Reactor parameters, when CO conversion values reach a plateau after a successful start-up, were used to calculate KLa for relevant conditions.
Syngas composition was 30% CO, 15% H2, 10% CO2 and 45% N2.

Clostridium ljungdahlii [8] = experiment: Fermentation with high CO feed-gas, head-space CO partial pressure control (Example 1); assay type: cell-based; conditions: 95% CO/5% N2 feed gas, head-space CO controlled; inoculum 1.28 g/l; within 41.4 hours after inoculation
Experimental: as §1, with “310 bioreactors” for “310 reactor”, “with 1.28” for “with 0.38”, “measured” for “measured in”, “reactor. High CO composition feed gas of 95% CO/5% N2 was utilized.” for “reactor.”
The following method was used to regulate rate of gas supply to the reactor: X=(head space CO %/100)×(measured reactor pressure(psig)+atmospheric pressure/atmospheric pressure(14.7))
if x is 0.08 or below gas flow to the reactor was increased by 7.6% of the current mole value of gas flow rate to the reactor
if X is 0.12 or higher gas flow to the reactor was decreased by 7.6% of the current mole value of gas flow rate to the reactor
as §3

[9] = tested on: Butyribacterium methylotrophicum; experiment: Fermentation with high CO feed-gas, head-space CO partial pressure control (Example 2); assay type: cell-based; conditions: 95% CO/5% N2 feed gas, head-space CO controlled; inoculum 0.92 g/l; within 68 hours after inoculation
Experimental: as §1, with “0.92” for “0.38”, “Butyribacterium methylotrophicum.” for “Clostridium ljungdahlii.”, “measured” for “measured in”, “reactor. High CO composition feed gas of 95% CO/5% N2 was utilized.” for “reactor.”
The method described in Example 1 was used to regulate the rate of gas supply to the reactor.
as §3

[10] = Stage 2, average dissolved CO 0.04 mmol
[11] = Stage 3, average dissolved CO 0.12 mmol
[12] = Stage 4, average dissolved CO 0.29 mmol
[13] = Run #2: 1× growth medium, 35 ml/min syngas
[14] = Run #3: 1× growth medium, 40 ml/min syngas
[15] = Run #4: 1× growth medium, 45 ml/min syngas
[16] = Run #10: 1.5× growth medium, 20 ml/min syngas

SMILES: [C-]#[O+] [CO, carbon monoxide]
- ethanol production, cell mass and morphology after recovery (Clostridium ljungdahlii [1]; CO conversions returned to approximately 80%): returned to healthy culture levels
- signs of inhibition (ethanol and acetic acid production, SCU, cell mass, cell morphology) (Clostridium ljungdahlii [1]; at approximately 80% CO conversions): didn't show signs of inhibition
- inhibition of culture (Clostridium ljungdahlii [1]; feed gas increased to maintain CO conversions below approximately 70%): inhibited
- cell mass (Clostridium ljungdahlii [2]): 6.21 g/L
- maximum dissolved CO concentration according to Henry's Law [3]: 0.079 mmol
- cell mass [4]: 3.32 g/L
- Henry's constant KH [5]: 17640 L(psi)/mol
- SCU Average (specific CO uptake) (Clostridium ljungdahlii [6]; [10]): 0.581 mmol/g/min
- CRT Average (cell retention time) (Clostridium ljungdahlii [6]; [10]): 23.74 h
- SCU Average (specific CO uptake) (Clostridium ljungdahlii [6]; [11]): 0.559 mmol/g/min
- CRT Average (cell retention time) (Clostridium ljungdahlii [6]; [11]): 31.89 h
- SCU Average (specific CO uptake) (Clostridium ljungdahlii [6]; [12]): 0.360 mmol/g/min
- CRT Average (cell retention time) (Clostridium ljungdahlii [6]; [12]): 75.92 h
- dissolved CO at which specific CO uptake proceeded on a downward trend (Clostridium ljungdahlii [6]; Stage 4, conversions coming down to 80%): around 0.2 mmol
- doubling time (Clostridium ljungdahlii [7]; Run #1: 1× growth medium, 25 ml/min syngas): about 20 hours
- initial lag period (Clostridium ljungdahlii [7]; Run #1: 1× growth medium, 25 ml/min syngas (30% CO)): about 20 hours
- doubling time (Clostridium ljungdahlii [7]; [13]): about 20 hours
- initial lag period (Clostridium ljungdahlii [7]; [13]): about 36 hours
- cell morphology (Clostridium ljungdahlii [7]; Run #2: 35 ml/min syngas, at about 51 hours after inoculation): elongated and curved
- doubling time (Clostridium ljungdahlii [7]; [14]): about 20 hours
- initial lag period (Clostridium ljungdahlii [7]; [14]): about 45 hours
- cell morphology (Clostridium ljungdahlii [7]; Run #3: 40 ml/min syngas, at about 51 hours after inoculation): elongated and curved
- doubling time (Clostridium ljungdahlii [7]; [15]): about 20 hours
- initial lag period (Clostridium ljungdahlii [7]; [15]): about 50 hours
- cell morphology (Clostridium ljungdahlii [7]; Run #4: 45 ml/min syngas, at about 55 hours after inoculation): elongated and curved
- lag period (culture continued to lag) (Clostridium ljungdahlii [7]; Run #5: 1× growth medium, 50 ml/min syngas): > 70 h
- doubling time (Clostridium ljungdahlii [7]; Run #6: 1× growth medium, 50 ml/min syngas, higher inoculum): about 20 hours
- initial lag period (Clostridium ljungdahlii [7]; Run #6: 1× growth medium, 50 ml/min syngas, higher inoculum (4.8 vs 3.8 g/L cells)): about 10 hours
- cell morphology (Clostridium ljungdahlii [7]; Run #6: 50 ml/min syngas, higher inoculum, at about 20 hours after inoculation): short and consistent in nature
- bacterial cell density over time (Clostridium ljungdahlii [7]; Run #7: 1.5× growth medium, 45 ml/min syngas): went down with time
- bacterial cell density over time (Clostridium ljungdahlii [7]; Run #8: 1.5× growth medium, 35 ml/min syngas): went down with time
- bacterial cell density over time (Clostridium ljungdahlii [7]; Run #9: 1.5× growth medium, 30 ml/min syngas): went down with time
- doubling time (Clostridium ljungdahlii [7]; [16]): 20 h
- bacterial cell density over time (Clostridium ljungdahlii [7]; [16]): went up with time
- cell mass (Clostridium ljungdahlii [8]): 8.24 g/L
- cell mass [9]: 7.88 g/L

Source: patent US8980575B2, “Process to avoid inhibition of acetogens by CO” (Ineos Bio SA, priority 2012, dated 2015)
